Laboratory results published in patent US20140057895A1, “INDAZOLE- AND PYRROLOPYRIDINE-DERIVATIVE AND PHARMACEUTICAL USE THEREOF” (priority 2011, published 2014).
Values joined by “and” are separate entries in the source; they are usually repeats but may differ in a detail not shown here. Identical values can stand only once. Marks after values point to notes of the source that are not given here.

Key:
[1] = tested on: scopolamine and MK801-induced cognitive impairment; assay: Example 5: Y-maze test, scopolamine and MK801-induced deficits, co-administration with donepezil (Table 102); assay type: in vivo, ddY mouse; conditions: Donepezil 10 mg/kg, p.o. alone
Description: (§1) Thus, scopolamine-induced cognitive impairment model, one of the AD-like model, has been used to predict pharmacodynamic signals of putative procognitive compounds, utilizing the acetylcholinesterase inhibitor donepezil for illustration (See, Citations 1 and 2). The present inventors investigated the effect of each compound on reversal of scopolamine-induced deficits in performance of Y-maze test in mice, and they also investigated adjunctive effect of compounds with donepezil on reversal of deficits induced by scopolamine and MK801 in mice.
(§2) Used animal: ddY mouse (SLC)
(§3) In the experiments, the mice were grouped in the same way using Stat Preclinica (Version 1.03295; Takumi Information Technology Inc.). The selected mice were divided into 5 to 7 groups of 7 to 12 mice using the “completely randomization design by the single variable” program (Analytical program version 1.0.7), with body weight on the testing day. After grouping, p values for Bartlett's test and ANOVA across all groups were greater than 0.2, indicating no significant difference in this parameter among the groups.
The required amount of each compound was weighed and put into a glass homogenizer. The required amount of 0.5% MC (methyl cellulose) solution was added, and each compound was suspended to give a 10 mg/kg dosing suspension.
The required amount of donepezil was weighed and put into a glass homogenizer. The required amount of 0.5% MC solution was added, and donepezil was suspended to give a suspension at concentration of 1 mg/mL (10 mg/kg dosing suspension).
(§4) The required amount of scopolamine and MK801 were weighed, and saline was added to it to give 0.3 mg/mL and 0.015 mg/mL solution, respectively.
(§5) 90 Min before the test, the mice were orally administered each compound, donepezil, and vehicle (0.5% methyl cellulose, 10 mL/kg). After 60 min, memory impairment was induced by administering scopolamine (0.6 mg/kg, s.c.) with (co-administration) or without (mono-administration) MK801 (0.03 mg/kg, s.c.). The control group received saline (2 mL/kg, s.c.) rather than scopolamine and MK801.
(§6) The Y-maze used herein is a three-arm maze with equal angles between all arms. The mazefloor and walls were constructed from black acrylic resin. The mice were initially placed within one arm, and the sequence and number of arm entries were recorded manually for each mouse over an 8-min period.
(§7) Data were processed and analyzed with Microsoft® Office Excel 2003. The alternation behavior was defined as entries into all three arms on consecutive occasions. The percent alternation behavior in each animal was calculated using the following formula, and rounded to one decimal place.
(§8) Alternation behavior(%)=[actual alternation/(total arm entries−2)]×100
(§9) Restoration ratio of alternation behavior (%) in each animal was calculated using the following formula, and rounded to one decimal place.
(§10) Restoration ratio of alternation behavior in each animal (%)=y Alternation behavior in each animal (%)=x Mean of alternation behavior in vehicle-treated group (group No. 1) (%)=A Mean of alternation behavior in scopolamine-treated group (group No. 2) (%)=B
(§11) Data were expressed as the mean of the percent alternation behavior, the number of total arm entries and the restoration ratio of alternation behavior.
(§12) Values of Y-maze tests are expressed as mean of alternation behavior (n=7−12).
(§13) Alternation behaviors in the scopolamine-treated groups were compared to those in the control groups using Wilcoxon rank sum test (Stat preclinical; Version 1.03295; Takumi Information Technology Inc.) with a two-sided significance level of 0.05.
Restoration of alternation behavior was analyzed using Stat Preclinica. Alternation behaviors in the Donepezil (10 mg/kg, p.o.)-treated group were compared to those in the co-administrated groups of test compounds with donepezil (10 mg/kg, p.o.) using non-parametric Dunnett multiple comparison test (Analytical program version 1.0.2) with a two-sided significance level of 0.05.

[2] = animal experiment using rats; cited from earlier work
[3] = phase II clinical trial with AD patients; cited from earlier work
[4] = tested on: scopolamine-induced cognitive impairment; assay: Example 5: Y-maze test, scopolamine-induced cognitive impairment, single-agent administration (Table 101); assay type: in vivo, ddY mouse; conditions: p.o., scopolamine-treated, # = P<0.05 vs scopolamine group
Description: as §1, §2, §3
The required amount of each compound was weighed and put into a glass homogenizer. […]
as §4, §5, §6, §7, §8, §9, §10, §11, §12, §13
Restoration of alternation behavior was analyzed using Stat Preclinica. Alternation behaviors in the vehicle-treated group were compared to those in the test substance-treated groups using non-parametric Dunnett multiple comparison test (Analytical program version 1.0.2) with a two-sided significance level of 0.05.

5-HT4 receptor = target: T1, 5-HT4 receptor (Cavia porcellus, UniProt O70528); assay: Test Example 1: Serotonin 4 (5-HT4) receptor binding assay, [3H]-GR113808, guinea pig striatum membranes (Table 96); conditions: Guinea pig 5-HT4 receptor binding assay, [3H]-GR113808, striatum membranes; mean value of each group
T1 construct: striatum was isolated which was cryopreserved at −80° C. until use; from tissue; host or cells: guinea pig (Slc-Hartley) striatum membranes
T1 sequence (O70528 whole entry): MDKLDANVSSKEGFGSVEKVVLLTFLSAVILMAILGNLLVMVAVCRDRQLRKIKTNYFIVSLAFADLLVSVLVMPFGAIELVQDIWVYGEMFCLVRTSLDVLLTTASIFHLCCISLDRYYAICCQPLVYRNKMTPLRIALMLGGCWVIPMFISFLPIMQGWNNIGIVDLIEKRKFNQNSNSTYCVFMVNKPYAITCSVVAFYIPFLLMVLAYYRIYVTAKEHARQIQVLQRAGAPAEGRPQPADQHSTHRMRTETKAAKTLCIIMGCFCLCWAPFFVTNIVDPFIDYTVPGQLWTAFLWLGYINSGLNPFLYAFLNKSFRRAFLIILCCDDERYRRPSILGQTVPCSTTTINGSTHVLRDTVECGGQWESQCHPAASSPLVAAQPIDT
Method: The 5-HT4 receptor binding assay and preparations of receptor membrane preparations herein were carried out according to a method of Grossman et al. [see, British J. Pharmacol., (1993) 109, 618].
Slc-Hartley guinea pigs (body weight 300 g to 400 g) were decapitated to remove brain rapidly, and striatum was isolated which was cryopreserved at −80° C. until use. To the obtained tissues were added fifteen fold of Hepes buffer (50 mM, pH 7.4, 4° C.), and the mixture was homogenized by Teflon (trademark) homogenizer and centrifuged at 48,000×g (4° C.) for 15 minutes. To the resulting precipitate was added Hepes buffer (1 ml) to 30 mg by wet weight of tissues, and the mixture was suspended to give receptor membrane preparations.
To an assay tube were added 0.1 nM [^3H]-GR113808 {chemical name: [1-[2-(methylsulfonylamino)ethyl]-4-piperidinyl]methyl 1-methylindole-3-carboxylate}, receptor membrane preparations, and Hepes buffer (50 mM, pH 7.4, 4° C., 1 ml) containing test compounds or 30 μM serotonin; and the mixture was incubated at 37° C. for 30 minutes. On quenching the reaction, the mixture was rapidly filtered on whatman GF/B filter, which was presoaked in 0.1% polyethyleneimine for 1 hour, by using Brandel cell Harvester, and washed with ice-cooled 50 mM Tris-HCl (pH 7.7, 4 ml) three times. To the filter after filtration was added a liquid scintillator (Ecoscint), and then a radioactivity was determined by a liquid scintillation counter.
50% Inhibition concentrations (IC50) were determined from inhibition rates of test compounds to specific bindings which were obtained by subtracting nonspecific bindings from total binding amounts of [^3H]-GR113808.
(§14) In the following table, the compounds used in the test are shown in numbers which correspond to the Example numbers above where the preparations of the compounds are described.

human 5-HT4b receptor = target: T2, human 5-HT4b receptor (Homo sapiens, UniProt Q13639); assay: Test Example 2: Serotonin 4 (5-HT4) receptor agonist activity assay, cAMP HTRF in CHO cells (Table 97); assay type: cell-based; conditions: cAMP in CHO cells expressing human 5-HT4b receptor, mean value
T2 construct: expressed in transfected cells; host or cells: CHO cells (G418 selection)
T2 sequence (Q13639 whole entry): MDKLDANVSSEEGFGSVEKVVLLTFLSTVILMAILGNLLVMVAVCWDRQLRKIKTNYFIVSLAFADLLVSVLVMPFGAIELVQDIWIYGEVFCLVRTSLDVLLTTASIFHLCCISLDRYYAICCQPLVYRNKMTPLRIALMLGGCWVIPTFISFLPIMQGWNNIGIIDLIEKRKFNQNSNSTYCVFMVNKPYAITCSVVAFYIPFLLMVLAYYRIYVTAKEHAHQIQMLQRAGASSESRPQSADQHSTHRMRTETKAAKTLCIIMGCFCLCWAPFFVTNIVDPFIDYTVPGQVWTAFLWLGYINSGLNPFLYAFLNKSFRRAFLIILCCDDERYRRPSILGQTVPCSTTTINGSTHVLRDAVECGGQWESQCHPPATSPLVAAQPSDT
Method: The cAMP measurement test used herein was carried out by using CISBIO HTRF (trademark) cAMP Hirange kit according to the manufacturer's instructions attached therewith.
CHO cells expressing human 5-HT4b receptor were incubated in Medium 1 [DMEM/1% NEAA, 1% penicillin/streptomycin (P/S), 0.2 mg/mL GENETICIN (G418), 10% FBS] at 37° C. under 5% CO2 condition. Then, the cells were put into Medium 2 (DMEM/10000 cut FBS, G-418, P/S, NEAA) for 1 to 2 hours, and collected by treating with trypsin containing EDTA. The collected cells were suspended in Assay Buffer 1 [100 mM Hanks/HEPES buffer (pH 7.4)], the suspended cells were mixed with the testing compound on 384-well plates, and the cells were incubated at 31° C. for 15 minutes. To the cells were added cAMP-cryptate solution and cAMP-d2 solution, and they were incubated at room temperature for 1 hour. Then, time-resolved fluorescence was measured by En Vision (excitation wavelength: 330 nm, fluorescence wavelength: 620/665 nm). An intrinsic activity of the compound [IA (%)] and a concentration showing 50% of IA [EC50 (nM)] were calculated from the obtained results. In particular, the intrinsic activity (IA) was calculated on the basis of the maximal activity of 5-HT (measured from 10^−11 M to 10^−7 M) defined as 100%.
as §14

| Structure (SMILES) | Alternation behavior (%) ([4]; compound 1 mg/kg) | Alternation behavior (%) ([4]; compound 3 mg/kg) | Alternation behavior (%) ([4]; compound 10 mg/kg) | other results |
| --- | --- | --- | --- | --- |
| COc1cc2c(cc1OC)C(=O)C(CC1CCN(Cc3ccccc3)CC1)C2 (stereo not drawn) [Donepezil, donepezil, reference compound] | – | – | – | Alternation behavior (%) [1]: 51.5^# % and 49.9^# % |
| CC(C)n1c(=O)c(C(=O)NCCCN2CCCCC2)c(O)c2ccsc21 [PRX-03140] | – | – | – | improving cognitive function [2]: efficacious for improving cognitive function; lowering Aβ [2]: lowering Aβ; effect for improving cognitive function [3]: shows the effect for improving cognitive function |
| CCc1nn(-c2noc(C3CCN(CC4CN(C(=O)OC)C4)CC3)n2)c2c(F)cccc12 [Example 218, methyl 3-({4-[3-(3-ethyl-7-fluoro-1H-indazol-1-yl)-1,2,4-oxadiazol-5-yl]piperidin-1-yl}methyl)azetidine-1-carboxylate] | 59.9% | 53 | 61.3% | – |
| CCc1nn(-c2noc(C3CCN(CCC4CCOCC4)CC3)n2)c2cc(F)ccc12 [Example 137, 3-ethyl-6-fluoro-1-(5-{1-[2-(tetrahydro-2H-pyran-4-yl)ethyl]piperidin-4-yl}-1,2,4-oxadiazol-3-yl)-1H-indazole] | – | 49.3 | 62.6^# % | IC50 (5-HT4 receptor): < 20 nM; Emax (human 5-HT4b receptor; 0.25 h, intrinsic activity, maximal activity of 5-HT defined as 100%, read-out: IA (%)): 66%; EC50 (human 5-HT4b receptor; concentration showing 50% of IA): 8.6 nM |
| CCc1nn(-c2noc(C3CCN(C[C@H]4CCN(C(C)=O)C4)CC3)n2)c2cc(F)ccc12.Cl [Example 205, 1-[(3R)-3-({4-[3-(3-ethyl-6-fluoro-1H-indazol-1-yl)-1,2,4-oxadiazol-5-yl]piperidin-1-yl}methyl)pyrrolidin-1-yl]ethanone hydrochloride] | 66.9^# % | 54.8 | 66.7^# % | – |
